Where two headings read alike, the source gives them in different places.
Tests used:
Swiss-Webster mice = test: animal or person; format: in vivo, mouse
Procedure: A time course/dose response study of cocaine-induced locomotor stimulation was conducted beginning Feb. 21, 2000, according to a locomotor activity studies time course protocol. […]. A panel of infrared beams (16 beams) and corresponding photodetectors were located in the horizontal direction along the sides of each activity chamber. A 7.5-W incandescent light above each chamber provided dim illumination. Fans provided an 80-dB ambient noise level within the chamber. […]. In all studies, horizontal activity (interruption of photocell beams) was measured for 8 hours within 10-min periods, beginning at 0800 hrs (2 hours after lights on). Testing was conducted with one mouse per activity chamber.
. Behavioral observations were recorded on each mouse at 30, 120 and 480 minutes following 100 mg/kg compound 31,646.

human PDE4A1 = molecular target: T1, human PDE4A1 (Homo sapiens, UniProt P27815); test: Inhibition of cAMP hydrolysis by recombinant human PDE4A1; format: biochemical
T1 construct: made in house
Procedure: (§1) PDE4 enzyme assays were carried out as described previously. Studies with recombinant PDE4 enzymes were carried out in the laboratory of Professor Marco Conti (Stanford University, Palo Alto, Calif.).

DAT, SERT or NET = test: Binding and reuptake inhibition in HEK cells containing DAT, SERT or NET (overall statement); format: cell-based, human; settings: for transporter inhibition potency: DAT, SERT, NET binding and reuptake
Procedure: The data cannot be directly compared with Table 1 because the compounds of Table 3 were mixtures of diastereomers and isomers at all centers of chirality.
Transporter Binding Assays. […] Cells were scraped from plates and centrifuged for […] at 30,000×g and the pellet was re-suspended in 0.32 M sucrose with a Polytron at a setting of 1 for 5 sec. […] Membranes were pre-incubated with test compounds for […] before addition of [^125I]RTI-55. […] The incubations were done in the dark and terminated by filtration onto a Whatman GF/C filters using a 96-well Tomtech cell harvester (Tomtech, Orange, Conn.). Scintillation fluid was added to each filter spot and radioactivity remaining on the filter was determined using a Wallace β-plate reader (Wallace Labs, Cranbury, N.J.).

[1] = Mouse liver microsome stability assay; format: in vitro ADME
Procedure: A typical assay mixture contained either mouse or rat liver microsomes (0.5 mg of protein), […] potassium phosphate buffer (pH 7.4), 40 μM test compounds, 0.5 mM NADP+, 0.5 mM glucose-6-phosphate, 5 IU/mL glucose-6-phosphate dehydrogenase, 1 mg/mL diethylenetriaminepentaacetic acid (DETAPAC) and 5 mM MgCl2 in a final incubation volume of 0.1 mL. After 0, 10, 25, 40 and […], the incubations were stopped by the addition of 1 ml CH2Cl2/2-propanol (3:1 v:v). The mixture was centrifuged at 12,000×g for 1 min, and the organic layer was separated from the aqueous fraction. The organic fraction was evaporated with a stream of argon and the residue was taken up in methanol (200 μL) and injected into the HPLC system described above.
(§2) Microsomal incubations (final volume 0.25 mL) with the SSRIs, dual PDE4 inhibitor/SSRIs or PDE4 inhibitor was done with an HPLC assay as described above. Diluted stocks of either mouse, human or rat liver microsomes (0.5 mg of protein), […] potassium phosphate buffer (pH 7.4), 0.5 mM NADI)^+, 0.5 mM glucose-6-phosphate, 5 IU/mL glucose-6-phosphate dehydrogenase, 0.6 mM DETAPAC, and 3 mM MgC12 were combined and placed on ice. For a metabolic stability assay, either vehicle or 40 μM test compound was added and the incubation was initiated at 37° C. with constant shaking. After 0, 10, 25, 40 and 60 min, the incubations were stopped by the addition of 1 mL CH2Cl2/2-propanol (3:1, v:v). After thorough mixing, the organic layer was separated from the aqueous portion by centrifugation at 12,000×g. The organic material was evaporated with a stream of argon. The residue was dissolved in methanol (200 μL) and the sample was analyzed by HPLC.

[2] = Human liver microsome stability assay; format: in vitro ADME; settings: for half-life at 40 μM: human, liver microsomes, pH 7.4, Table 16, read-out: HLM t1/2
Procedure: as §2

mice = test: Morris water maze test; format: in vivo, mouse; settings: 3 mg/kg, compared to control mice
Procedure: Compounds 19 and 115 were tested in a Morris water maze test. The escape latency (time to climb onto a hidden platform) for each mouse was recorded as a memory test. […] Compared to a group of control mice, compound 19 and 115 caused a 30% improvement in memory at 3 mg/kg. […] This is not completely unexpected as SSRIs often require repeated dosing to see a large and significant effect. […] Multiple dosing likely will increase the efficacy of the compounds tested.

human PDE4B3 = molecular target: T2, human PDE4B3 (Homo sapiens, UniProt Q07343); test: Inhibition of cAMP hydrolysis by recombinant human PDE4B3; format: biochemical; settings: Example 29
T2 construct: made in house
Procedure: as §1

human PDE4D3 = molecular target: T3, human PDE4D3 (Homo sapiens, UniProt Q08499); test: Inhibition of cAMP hydrolysis by recombinant human PDE4D3; format: biochemical
T3 construct: made in house; host or cells: Cos 7 cells (construct and cells a gift from Dr. Conti, Stanford)
Procedure: The PDE construct was transfected into Cos 7 cells in round culture dish (100×20 mm). The cells were then harvested and homogenized with lysis buffer. The crude homogenate was spun at maximum speed in a microfuge. The supernatant fluid was saved as an extract. […] The PDE construct and Cos 7 cells were a kind gift from Dr. Conti at the Stanford University School of Medicine.
as §1

ICR mice = test: Forced-swim test in ICR mice; format: in vivo, mouse
Procedure: Forty male ICR mice, weighed 26.2±0.3 g, were housed in a temperature-controlled room (22-23° C.) and maintained on a 12-hour on 12-hour off light cycle (lights on at 6:00 AM). Water and food were freely available in the home cages. […] Saline containing the same percentage of DMSO was used as vehicle. The lower doses were tested followed by the larger doses 1 week later, when the mice were again randomly divided into four groups as described above. The forced-swim test (FST) was carried out as described previously. Mice were given a swimming pretest session, once a day for two successive days. Twenty-four hours after the last session, mice were injected vehicle or the lower dose of each test compound by the i.p. route 30 min prior to the FST. One week later, administration of the larger dose of each of the test compounds was repeated. During the pretest and test sessions, each mouse was placed for 6 min in a plastic cylinder (45 cm high×20 cm diameter), which was filled to a depth of 28 cm with water (23±1° C.). The duration of immobility, which was defined as floating in an upright position without additional activity other than that necessary for the animal to keep its head above water, was recorded.

Balb/c mice = test: Forced-swim test in Balb/c mice; format: in vivo, mouse; settings: for duration of immobility, forced-swim test, acute: i.p. 30 min prior, fluoxetine 20 mg/kg, test compounds 10 mg/kg
Procedure: The study was conducted according to a standard operation procedure and in accordance with all Federal regulations. Water and food were freely available in the home cages. […] Mice were given a swimming pretest session, once a day for two successive days. […] During the pretest and test sessions, each mouse was placed for […] in a plastic cylinder (45 cm high×20 cm diameter), which was filled to a depth of 28 cm with water (23±1° C.). The duration of immobility, which was defined as floating in an upright position without additional activity other than that necessary for the animal to keep its head above water, was recorded. For the subchronic administration tests, the animals were separated as above and vehicle or chemicals were given by i.p. administration 23, 5 and 1 hr before the FST. The subchronic experiments were done similar to the study described above except for the pretest training that was not carried out.
Mice in the first session were treated with vehicle or the drugs acutely, whereas mice in the second sessions were treated subchronically, i.e., vehicle or drugs were given i.p. 23, 5, and 1 hr before the FST. The experiment was performed similar to Experiment 1 except for the pretest training, which was not carried out in the second session.

rodent PDE4 = test: Inhibition of rodent PDE4 (rolipram binding sites); settings: Table 4
Procedure: IC50 values for inhibitor interaction with this site were calculated by nonlinear regression analysis of competition curves for unlabeled PDE4 inhibitors; Ki values were determined according to the method of Cheng and Prusoff (1973). […] Competition curves for the PDE4 inhibitors were subjected to nonlinear regression analysis and IC50 values with which the inhibitors bind to each of the binding sites was determined; K1 values were determined according to the method of Cheng and Prusoff (1973).

[3] = Example 29, read-out: Ki, human PDE4A1
[4] = Table 14, read-out: Human PDE4A1 Ki
[5] = Example 29, read-out: Ki, human PDE4D3

T3 sequence (Q08499 1-673 isoform Q08499-2): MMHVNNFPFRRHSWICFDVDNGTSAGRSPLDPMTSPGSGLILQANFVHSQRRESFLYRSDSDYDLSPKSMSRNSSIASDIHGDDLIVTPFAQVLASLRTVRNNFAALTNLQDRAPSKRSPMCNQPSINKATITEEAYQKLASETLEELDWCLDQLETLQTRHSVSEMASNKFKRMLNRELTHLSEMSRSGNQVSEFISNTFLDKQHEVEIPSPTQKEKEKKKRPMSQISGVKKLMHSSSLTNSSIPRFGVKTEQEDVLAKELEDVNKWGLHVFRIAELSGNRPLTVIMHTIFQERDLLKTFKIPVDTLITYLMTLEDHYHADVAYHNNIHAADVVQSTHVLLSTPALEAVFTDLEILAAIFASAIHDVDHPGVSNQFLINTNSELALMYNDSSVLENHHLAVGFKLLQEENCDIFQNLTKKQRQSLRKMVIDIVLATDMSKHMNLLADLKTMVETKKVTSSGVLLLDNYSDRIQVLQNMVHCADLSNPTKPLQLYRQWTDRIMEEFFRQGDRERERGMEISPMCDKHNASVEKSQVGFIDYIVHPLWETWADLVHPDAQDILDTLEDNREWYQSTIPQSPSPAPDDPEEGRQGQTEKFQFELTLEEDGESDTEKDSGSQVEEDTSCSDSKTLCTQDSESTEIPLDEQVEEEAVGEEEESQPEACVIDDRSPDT
T1 sequence (P27815 1-647 isoform P27815-4): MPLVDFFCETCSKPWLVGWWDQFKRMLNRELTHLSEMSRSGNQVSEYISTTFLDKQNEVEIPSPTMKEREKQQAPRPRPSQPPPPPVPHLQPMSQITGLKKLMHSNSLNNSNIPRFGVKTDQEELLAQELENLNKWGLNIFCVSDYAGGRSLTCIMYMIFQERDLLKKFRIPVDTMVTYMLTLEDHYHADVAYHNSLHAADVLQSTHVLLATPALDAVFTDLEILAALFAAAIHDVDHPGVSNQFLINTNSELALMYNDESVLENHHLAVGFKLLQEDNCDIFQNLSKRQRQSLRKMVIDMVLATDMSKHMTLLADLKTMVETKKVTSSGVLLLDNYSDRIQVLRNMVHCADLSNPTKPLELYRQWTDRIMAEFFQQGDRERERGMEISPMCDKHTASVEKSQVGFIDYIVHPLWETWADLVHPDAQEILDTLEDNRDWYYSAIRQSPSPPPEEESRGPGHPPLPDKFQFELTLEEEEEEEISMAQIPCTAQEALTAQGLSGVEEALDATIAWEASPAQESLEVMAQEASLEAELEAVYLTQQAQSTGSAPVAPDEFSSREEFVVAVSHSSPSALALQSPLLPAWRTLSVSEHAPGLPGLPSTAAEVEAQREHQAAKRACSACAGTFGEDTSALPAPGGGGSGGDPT
T2 sequence (Q07343 1-721 isoform Q07343-3): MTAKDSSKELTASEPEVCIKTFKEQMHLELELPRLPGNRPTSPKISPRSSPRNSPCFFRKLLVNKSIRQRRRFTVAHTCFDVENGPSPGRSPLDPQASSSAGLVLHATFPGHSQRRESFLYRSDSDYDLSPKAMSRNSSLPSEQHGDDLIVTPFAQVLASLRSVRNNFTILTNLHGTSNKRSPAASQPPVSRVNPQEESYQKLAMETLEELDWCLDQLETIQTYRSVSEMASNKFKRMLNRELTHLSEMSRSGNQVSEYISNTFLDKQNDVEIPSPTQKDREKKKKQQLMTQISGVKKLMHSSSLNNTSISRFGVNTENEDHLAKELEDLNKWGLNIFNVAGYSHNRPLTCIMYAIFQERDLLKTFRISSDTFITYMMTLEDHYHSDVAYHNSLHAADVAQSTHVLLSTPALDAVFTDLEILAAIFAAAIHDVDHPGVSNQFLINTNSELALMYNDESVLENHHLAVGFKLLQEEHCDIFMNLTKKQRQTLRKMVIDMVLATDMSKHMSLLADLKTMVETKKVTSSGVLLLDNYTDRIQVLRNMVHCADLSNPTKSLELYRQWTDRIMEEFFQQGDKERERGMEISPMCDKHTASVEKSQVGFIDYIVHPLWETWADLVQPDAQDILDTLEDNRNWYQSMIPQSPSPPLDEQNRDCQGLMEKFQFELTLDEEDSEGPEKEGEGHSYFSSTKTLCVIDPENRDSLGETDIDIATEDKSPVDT

Molecule: NCCC1CCC(CCc2ccccc2)O1 (stereo not drawn) [Compound 54, 2-(Aminoethyl)-5-(phenethyl)tetrahydrofuran]
- other behavioral observations (Swiss-Webster mice; 100 mg/kg, 30, 120 and 480 minutes): No unusual effects were observed
- onset of depressant effects after injection (Swiss-Webster mice; 30 and 100 mg/kg): ≤ 10 min
- ID50 (dose producing 1/2 maximal depressant activity) (Swiss-Webster mice; IP, 0-30 min after injection): 39.8 mg/kg
- CNS stimulation (Swiss-Webster mice; mouse, in vivo): did not cause CNS stimulation

Molecule: COc1ccc(C2=NNC(=O)[C@@H]3CC=CC[C@H]23)cc1OC (racemic) [Compound 19, 4-(3,4-Dimethoxy-phenyl)-4a,5,8,8a-tetrahydro-2H-phthalazin-1-one, reference compound]
- Ki (human PDE4A1; [3]): > 1000 nM
- Ki (human PDE4A1; [4]): < 1000 nM
- effect on RTI-55 binding or reuptake at any transporter (DAT, SERT or NET; hDAT, hSERT, hNET): essentially no measurable effect
- half life, mouse liver microsomes ([1]; NADPH): 3.52 h
- MLM t1/2 ([1]; Table 16): 3.522 h
- half-life at 40 μM [2]: > 1 h
- improvement in memory (escape latency) (mice): 30%
- Ki (human PDE4B3): 250 nM
- PDE4A1/PDE4D3 inhibitory selectivity ratio (human PDE4D3): < 159 fold
- PDE4B3/PDE4D3 inhibitory selectivity ratio (human PDE4D3): 40 fold
- Ki (human PDE4D3; [5]): 6.3 nM
- immobility, forced-swim test, acute, higher dose (ICR mice; 3 mg/kg i.p., vs vehicle, P<0.05): significantly reduced immobility
- duration of immobility, forced-swim test, acute (ICR mice; 0.3 and 3 mg/kg i.p.): decreased duration of immobility in a dose-dependent manner

Molecule: COc1ccc(F)cc1CCC1CCC(CCN)O1 (stereo not drawn) [Compound 14, 2-Aminoethyl-5-(2′-methoxy-5′-fluorophenethyl)tetrahydrofuran]
- half life, mouse liver microsomes ([1]; NADPH): 0.933 h
- MLM t1/2 ([1]; Table 16): 0.933 h
- immobility, forced-swim test, subchronic (Balb/c mice; i.p. 23, 5 and 1 hr prior, fluoxetine 10 mg/kg, 18k/l or 14 10 mg/kg, 21 1 mg/kg): did not change immobility
- duration of immobility, forced-swim test, acute (Balb/c mice): did not markedly alter the duration of immobility
- immobility, forced-swim test, acute (ICR mice; 10 and 30 mg/kg i.p.): tended to decrease immobility, but it was not statistically significant

Molecule: COc1ccc(C2=NNC(=O)C3CC=CCC23)cc1OC (racemic) [Compound 19, 4-(3,4-Dimethoxy-phenyl)-4a,5,8,8a-tetrahydro-2H-phthalazin-1-one, reference compound]
- transporter inhibition potency (DAT, SERT or NET): no transporter inhibition potency
- pIC50 (rodent PDE4): 6.7
- Ki (human PDE4D3; Table 5, recombinant human PDE 4D3, read-out: Ki): 6.3 nM

Molecule: COc1ccc(C2CNC(=O)C2)cc1OC1CCCC1 (stereo not drawn) [Rolipram, reference compound]
- forced-swim test behavior, acute (ICR mice; 0.5 mg/kg): did not alter FST behavior

Molecule: 2-(5-Bromo-pentyl)-4-(3,4-dimethoxy-phenyl-4a,5,8,8a-tetrahydro-2H-phthalazin-1-one [Compound 20]
- transporter inhibition potency (DAT, SERT or NET): no transporter inhibition potency

Molecule: COC(=O)[C@H]1[C@@H](OC(=O)c2ccccc2)C[C@@H]2CC[C@H]1N2C [Cocaine, reference compound]
- onset of stimulant effects after injection (Swiss-Webster mice; 10 and 20 mg/kg): ≤ 10 min
- ED50 (Swiss-Webster mice; Mus musculus, IP, 0-30 min, read-out: ED50 (dose producing 1/2 maximal stimulant activity)): 5.8 mg/kg
- dose at maximum horizontal activity (Swiss-Webster mice; estimated from fitted curve): 23.4 mg/kg
- maximum horizontal activity (Swiss-Webster mice; estimated from fitted curve, 0-30 min): 5520 counts/10 min

Molecule: COc1ccc(F)cc1CCCC1CCC(CCN)O1 (stereo not drawn) [Compound 15, 2-Aminoethyl-5-(3′-(2″-methoxy-5″-fluorophenyl)-1′-propyl)tetrahydrofuran]
- duration of immobility, forced-swim test, acute (Balb/c mice): did not markedly alter the duration of immobility

Molecule: COc1ccc(F)c(CCCC2CCC(CCNCCCCCN3N=C(c4ccc(OC)c(OC)c4)C4CC=CC[C@H]4C3=O)O2)c1 (stereo partly drawn) [Compound 22]
- Ki (human PDE4A1; [3]): > 1000 nM
- Ki (human PDE4A1; [4]): < 1000 nM
- metabolism in mouse liver microsomes ([1]; NADPH, up to 60 min): No detectable metabolic instability
- half-life at 40 μM ([1]; mouse, liver microsomes, pH 7.4, Table 16, read-out: MLM t1/2): > 1 h
- metabolism in human liver microsomes ([2]; NADPH, up to 60 min): No detectable metabolic instability
- half-life at 40 μM [2]: > 1 h
- pIC50 (rodent PDE4): 6.3
- Ki (human PDE4B3): 500 nM
- Ki (human PDE4D3; [5]): 1.2 nM

Molecule: COc1ccc(F)cc1CCC1CCC(CCNCCCCCN2N=C(c3ccc(OC)c(OC)c3)C3CC=CC[C@H]3C2=O)O1 (stereo partly drawn) [Compound 115]
- improvement in memory (escape latency) (mice): 30%

— US20130123253A1, “MODULATORS OF CENTRAL NERVOUS SYSTEM NEUROTRANSMITTERS” (HUMAN BIOMOLECULAR RESEARCH INSTITUTE, priority 2004, published 2013)
